# Measured values published in patent publication US7642367B2, “Diamino-functional chalcones” (Lica Pharmaceuticals A/S, priority 2002, dated 2010).
# Where two headings read alike, the source gives them in different places.
# Tests used:
# [1] = tested on: Plasmodium falciparum 3D7; experiment: Plasmodium falciparum assay (3H-phenylalanine labelling); format: cell-based
# [2] = Determination of metabolic stability (liver microsomes); format: in vitro ADME, Wistar rat; conditions: for Metabolic turn-over in vitro: rat liver microsomes, 20 μM, 15 min at 37° C.
# Experimental: incubations were performed with Wistar rat liver microsomes (0.25 mg/ml) in 2% sodium bicarbonate solution. NADP (0.13 mg/ml), glucose-6-phosphate (0.63 mg/ml) and glucose-6-phosophate dehydrogenase (0.38 units/ml) were used as NADPH generation system and UDPGA (0.48 mg/ml) was added to include the phase II reaction, glucuronic acid conjugation, in the assay. After 5 minutes of pre-incubation the reaction was started by addition of the test article to give a final concentration of 20 μM. Samples were incubated for 15 min at 37° C. and the reactions were terminated by addition of equal volumes of acetonitrile. Blank incubations were performed at the same concentration but without addition of microsomes. Both blank and microsome-containing samples were made in replicats of three. Prior to analysis samples were centrifuged for 10 min. at 3500 rpm, HPLC system:
# Initial conditions were 40% mobile phase A (acetonitrile) and 60% mobile phase B (10 mM ammonium acetate pH 9.5). During the first 20 minutes, the mobile phase was changed via a linear gradient to 90% A and 10% B. This was followed by a 5 minutes linear gradient to initial conditions, which were maintained for 5 min. The flow rate was 0.20 ml/min and injection volume 10 μl.
# [3] = Determination of solubility in phosphate buffer pH 7.4; format: physicochemical; conditions: aqueous buffer at pH 7.4
# Experimental: Solubility of the compounds was determined by preparing a saturated solution of compound in 0.3 M phosphate buffer (pH 7.4±0.3) in a brown glass tube. The suspensions were rotated slowly for 24 hours. Aliquots were centrifuged for 10 minutes at 14.000 rpm and supernatants were diluted in 40% (v/v) acetonitrile in water prior to HPLC analysis. Concentrations of analytes were quantified against a standard curve and used as term of solubility.
# The HPLC-UV method used for the assessment of solubility is the same as used in the in vitro metabolism assay.
# [4] = tested on: Plasmodium berghei K173; experiment: Multiple intra venous administration in Plasmodium berghei K173 infected mice; format: in vivo; conditions: Plasmodium berghei K173 infected NMRI female mice, multiple intra venous administrations, FIG. 10
# Experimental: The doses stated were administered intra venously as solutions in a suitable vehicle.
# [5] = mice
# [6] = mice; remark: listed apart in the source
# [7] = tested on: Plasmodium berghei K173; conditions: Plasmodium berghei K173 infected NMRI female mice, multiple oral administrations, FIG. 8
# [8] = tested on: Staphylococcus aureus ATCC29213; experiment: MIC determination in broth microdilution assay; conditions: A: Staphylococcus aureus ATCC29213; NA: no activity
# [9] = tested on: Staphylococcus aureus ATCC33591 (resistant to methicillin); experiment: MIC determination in broth microdilution assay; conditions: B: Staphylococcus aureus ATCC33591 (resistant to methicillin); NA: no activity
# [10] = tested on: Staphylococcus intermedius #2357 (clinical isolate); experiment: MIC determination in broth microdilution assay; conditions: C: Staphylococcus intermedius #2357; NA: no activity
# [11] = tested on: Enterococcus faecalis ATCC29212; experiment: MIC determination in broth microdilution assay; conditions: D: Enterococcus faecalis ATCC29212; NA: no activity
# [12] = tested on: Enterococcus faecium #17501 (vancomycin-resistant clinical isolate); experiment: MIC determination in broth microdilution assay; conditions: E: Enterococcus faecium #17501 (vancomycin-resistant); NA: no activity
# [13] = tested on: Streptococcus pneumoniae #998 (clinical isolate); experiment: MIC determination in broth microdilution assay; conditions: F: Streptococcus pneumoniae #998; NA: no activity
# [14] = tested on: Eschericia coli ATCC25922; experiment: MIC determination in broth microdilution assay; conditions: G: Eschericia coli ATCC25922; NA: no activity
# [15] = tested on: Eschericia coli ESS; experiment: MIC determination in broth microdilution assay; conditions: H: Eschericia coli ESS; NA: no activity
# [16] = tested on: non-fastidious bacteria; experiment: Activity against non-fastidious bacteria (panel); conditions: pathogenic Gram-positive bacteria
# [17] = tested on: Plasmodium falciparum DD2 (Cq-res); conditions: read-out: Plasmodium falciparum IC50
# [18] = tested on: Plasmodium falciparum 7G8 (Cq-res); conditions: read-out: Plasmodium falciparum IC50
# [19] = tested on: Plasmodium falciparum K1 (Cq-res); conditions: read-out: Plasmodium falciparum IC50
smiles,measurement,setting,value
"CN(C)CCN(C)c1cccc(/C=C/C(=O)c2ccccc2CN(C)C)c1 [B074, (E)-3-{3-[(2-Dimethylamino-ethyl)-methyl-amino]-phenyl}-1-(2-dimethylaminomethyl-phenyl)-propenone]",IC50,"[1]; Plasmodium falciparum 3D7 (Table 2), read-out: IC50",600 nM
same,Metabolic turn-over in vitro,[2],0%
same,Solubility,[3],15400 µg/mL
same,effect on parasitaemia,[4],significant decrease in the parasitaemia
"COc1ccccc1-c1ccc(/C=C/C(=O)c2ccc(O)c(CN(C)C)c2)c(N2CCN(C)CC2)c1 [B098, (E)-1-(3-Dimethylaminomethyl-4-hydroxy-phenyl)-3-[2′-methoxy-3-(4-methyl-piperazin-1-yl)-biphenyl-4-yl]-propenone]",bioavailability,[5],50%
"Cc1ccccc1-c1cc(/C=C/C(=O)c2ccccc2CN(C)C)cc(N(C)CCN(C)C)c1 [B119, (E)-3-{5-[(2-Dimethylamino-ethyl)-methyl-amino]-2′-methyl-biphenyl-3-yl}-1-(2-dimethylaminomethyl-phenyl)-propenone]",metabolism,[2]; rat,8.6%
same,Metabolic turn-over in vitro,[2],9%
same,metabolism,[6],75%
same,effect on infection (parasitaemia),[7],inhibit the development of the infection
"Cc1cc(C)cc(-c2ccc(N3CCN(C)CC3)c(/C=C/C(=O)c3cccc(NCCN(C)C)c3)c2)c1 [B101, (E)-1-[3-(2-Dimethylamino-ethylamino)-phenyl]-3-[3′,5′-dimethyl-4-(4-methyl-piperazin-1-yl)-biphenyl-3-yl]-propenone]",Metabolic turn-over in vitro,[2],3%
same,MIC,[8],4.7 µM
same,MIC,[9],4.7 µM
same,MIC,[10],9.4 µM
same,MIC,[11],4.7 µM
same,MIC,[12],4.7 µM
same,MIC,[13],4.7 µM
same,MIC,[14],9.4 µM
same,MIC,[15],4.7 µM
same,activity against Gram-positive non-fastidious bacteria,[16],increased potency
"COc1ccc(C(=O)/C=C/c2cc(-c3ccccc3)cc(N3CCN(C)CC3)c2)c(CN(C)C)c1 [B111, (E)-1-(2-Dimethylaminomethyl-4-methoxy-phenyl)-3-[5-(4-methyl-piperazin-1-yl)-biphenyl-3-yl]-propenone]",IC50,"[1]; 3D7 (Cq-sen) (Table 3), read-out: Plasmodium falciparum IC50",1600 nM
same,Metabolic turn-over in vitro,[2],4%
same,Solubility,[3],3100 µg/mL
same,IC50,[17],1000 nM
same,IC50,[18],1300 nM
same,IC50,[19],1000 nM
